According to patent US8598086B2, “3-halo-(arly)-4-iminotetrahydropicolinates and their use as herbicides” (Dow AgroSciences, LLC., priority 2009, dated 2013):

Experiments:
Type in all cases: in vivo
[1] = test system: pigweed (Amaranthus retroflexus); test: Pre-emergent Test I; details: 4000 g ai/ha, 14 d after treatment, scale 0 (no herbicidal effect) to 100 (plant death or lack of emergence)
Protocol: (§1) Pre-emergent Test I: Weed seeds were obtained from commercial suppliers and planted into round plastic pots (5-inch diameter) containing silt loam soil (23% sand, 52% silt, 29% clay, 2.9% organic matter, CEC 16.6, pH 7.2). After planting, all pots were subirrigated 16 h prior to compound application. Compounds were dissolved in a 97:3 v/v mixture of acetone and DMSO and diluted to the appropriate concentration in a final application solution containing water, acetone, isopropyl alcohol, DMSO and Agri-dex (crop oil concentrate) in a 59:23:15:1.0:1.5 v/v ratio and 0.02% w/v of Triton X-155 to obtain the spray solution containing the highest application rate. The high application rate was serial diluted with the above application solution to provide delivery of the compound at rates 1/2×, 1/4× and 1/8× of the highest rate (equivalent to 4.0, 2.0, 1.0, and 0.5 kg/ha, respectively). Formulated compound (2.7 mL) was pipetted evenly over the soil surface followed by incorporation with water (15 mL). Following treatment, pots were returned to the greenhouse for the duration of the experiment. The greenhouse was programmed for an approximate 15 h photoperiod which was maintained at about 23-29° C. during the day and 22-28° C. during the night. Nutrients and water were added on a regular basis through surface irrigation and supplemental lighting was provided with overhead metal halide 1000-Watt lamps as necessary. Herbicidal effect ratings were obtained 14 d after treatment. All evaluations were made relative to appropriate controls on a scale of 0 to 100 where 0 represents no herbicidal effect and 100 represents plant death or lack of emergence from the soil.

[2] = test system: ivyleaf morningglory (Ipomoea hederacea); test: Pre-emergent Test I; details: 4000 g ai/ha, 14 d after treatment, scale 0 (no herbicidal effect) to 100 (plant death or lack of emergence)
Protocol: as §1

wild oat (Avena fatua) [3] = test: Pre-emergent Test I; details: 4000 g ai/ha, 14 d after treatment, scale 0 (no herbicidal effect) to 100 (plant death or lack of emergence)
Protocol: as §1

[4] = test system: sunflower (Helianthus annuus); test: Pre-emergent Test I; details: 4000 g ai/ha, 14 d after treatment, scale 0 (no herbicidal effect) to 100 (plant death or lack of emergence)
Protocol: as §1

[5] = test system: giant foxtail (Setaria faberi); test: Pre-emergent Test I; details: 4000 g ai/ha, 14 d after treatment, scale 0 (no herbicidal effect) to 100 (plant death or lack of emergence)
Protocol: as §1

[6] = test system: velvetleaf (Abutilon theophrasti); test: Post-emergent Test II; details: 140 g ai/ha, after 14 d, 0 = no injury, 100 = complete kill
Protocol: (§2) Post-emergent Test II: Seeds or nutlets of the desired test plant species were planted in Sun Gro Metro-Mix® 360 planting mixture, which typically has a pH of 6.0 to 6.8 and an organic matter content of about 30 percent, in plastic pots with a surface area of 64 square centimeters. When required to ensure good germination and healthy plants, a fungicide treatment and/or other chemical or physical treatment was applied. The plants were grown for 7-21 d in a greenhouse with an approximate 15 h photoperiod which was maintained at about 23-29° C. during the day and 22-28° C. during the night. Nutrients and water were added on a regular basis and supplemental lighting was provided with overhead metal halide 1000-Watt lamps as necessary. The plants were employed for testing when they reached the first or second true leaf stage.
(§3) A weighed amount, determined by the highest rate to be tested, of each test compound was placed in a 25 mL glass vial and was dissolved in 4 mL of a 97:3 v/v mixture of acetone and DMSO to obtain concentrated stock solutions. […] The concentrated stock solutions obtained were diluted with 20 mL of an aqueous mixture containing acetone, water, isopropyl alcohol, DMSO, Atplus 411F crop oil concentrate, and Triton® X-155 surfactant in a 48.5:39:10:1.5:1.0:0.02 v/v ratio to obtain spray solutions containing the highest application rates. Additional application rates were obtained by serial dilution of 12 mL of the high rate solution into a solution containing 2 mL of 97:3 v/v mixture of acetone and DMSO and 10 mL of an aqueous mixture containing acetone, water, isopropyl alcohol, DMSO, Atplus 411F crop oil concentrate, and Triton X-155 surfactant in a 48.5:39:10:1.5:1.0:0.02 v/v ratio to obtain 1/2×, 1/4×, 1/8× and 1/16× rates of the high rate. Compound requirements are based upon a 12 mL application volume at a rate of 187 liters per hectare (L/ha). Formulated compounds were applied to the plant material with an overhead Mandel track sprayer equipped with 8002E nozzles calibrated to deliver 187 L/ha over an application area of 0.503 square meters at a spray height of 18 inches (43 cm) above the average plant canopy height. Control plants were sprayed in the same manner with the solvent blank.
(§4) The treated plants and control plants were placed in a greenhouse as described above and watered by subirrigation to prevent wash-off of the test compounds. After 14 d, the condition of the test plants as compared with that of the untreated plants was determined visually and scored on a scale of 0 to 100 percent where 0 corresponds to no injury and 100 corresponds to complete kill.

rice (Oryza sativa) = test: Post-emergent Test II; details: 140 g ai/ha, after 14 d, 0 = no injury, 100 = complete kill
Protocol: as §2, §3, §4

[7] = test system: lambsquarters (Chenopodium album); test: Post-emergent Test II; details: 140 g ai/ha, after 14 d, 0 = no injury, 100 = complete kill
Protocol: as §2, §3, §4

[8] = test system: barnyardgrass (Echinochloa crus-galli); test: Post-emergent Test II; details: 140 g ai/ha, after 14 d, 0 = no injury, 100 = complete kill
Protocol: as §2, §3, §4

[9] = test system: bindweed (Polygonum convolvulus); test: Post-emergent Test II; details: 140 g ai/ha, after 14 d, 0 = no injury, 100 = complete kill
Protocol: as §2, §3, §4

[10] = test system: pigweed (Amaranthus retroflexus); test: Post-emergent Test I; details: 4000 g ai/ha, 10 d after treatment, scale 0 (no activity) to 100 (complete plant death)
Protocol: (§5) Post-emergent Test I: Weed seeds were obtained from commercial suppliers and planted into 5″-round pots containing soilless media mix (Metro-Mix 360®, Sun Gro Horticulture Canada CM Ltd. Vancouver, British Columbia) 8-12 d prior to application and cultured in a greenhouse equipped with supplemental light sources to provide a 16 h photoperiod at 24-29° C. All pots were surface irrigated. Compounds were dissolved in a 97:3 v/v (volume per volume) mixture of acetone and dimethyl sulfoxide (DMSO) and diluted to the appropriate concentration in a final application solution containing water, acetone, isopropyl alcohol, DMSO and Agri-dex (crop oil concentrate) in a 59:23:15:1.0:1.5 v/v ratio and 0.02% w/v (weight per volume) of Triton X-155 to obtain the spray solution containing the highest application rate. The high application rate was serial diluted with the above application solution to provide delivery of the compound at rates 1/2×, 1/4× and 1/8× of the highest rate (equivalent to 4.0, 2.0, 1.0, and 0.5 kg/ha, respectively). Formulated compound (2.7 mL) was applied using a DeVilbiss® compressed air sprayer at 2-4 pounds per square inch (psi) […]. Following treatment, pots were allowed to dry before being returned to the greenhouse for the duration of the experiment and subirrigated as needed. All pots were fertilized one time per week by subirrigating with Peters Peat-Lite Special® fertilizer (20-10-20). Phytotoxicity ratings were obtained 10 d after treatment. All evaluations were made on a scale of 0 to 100 where 0 represents no activity and 100 represents complete plant death.

[11] = test system: ivyleaf morningglory (Ipomoea hederacea); test: Post-emergent Test I; details: 4000 g ai/ha, 10 d after treatment, scale 0 (no activity) to 100 (complete plant death)
Protocol: as §5

wild oat (Avena fatua) [12] = test: Post-emergent Test I; details: 4000 g ai/ha, 10 d after treatment, scale 0 (no activity) to 100 (complete plant death)
Protocol: as §5

[13] = test system: sunflower (Helianthus annuus); test: Post-emergent Test I; details: 4000 g ai/ha, 10 d after treatment, scale 0 (no activity) to 100 (complete plant death)
Protocol: as §5

[14] = test system: giant foxtail (Setaria faberi); test: Post-emergent Test I; details: 4000 g ai/ha, 10 d after treatment, scale 0 (no activity) to 100 (complete plant death)
Protocol: as §5

Compound: COC(=O)C1=C(Cl)/C(=N/OS(C)(=O)=O)CC(c2ccc(Cl)c(OC)c2F)N1 (stereo not drawn) [Compound 29, 3-Chloro-6-(4-chloro-2-fluoro-3-methoxyphenyl)-4-[(E)-methanesulfonyloximino]-1,4,5,6-tetrahydropyridine-2-carboxylic acid methyl ester]
- Herbicidal effect rating AMARE [1]: 100
- Herbicidal effect rating IPOHE [2]: 95
- Herbicidal effect rating AVEFA (wild oat (Avena fatua) [3]): 30
- Herbicidal effect rating HELAN [4]: 80
- Herbicidal effect rating SETFA [5]: 60
- Visual injury score ABUTH [6]: 100%
- Visual injury score ORYSA (rice (Oryza sativa)): 0%
- Visual injury score CHEAL [7]: 100%
- Visual injury score ECHCG [8]: 100%
- Visual injury score POLCO [9]: 90%
- Phytotoxicity rating AMARE [10]: 100
- Phytotoxicity rating IPOHE [11]: 95
- Phytotoxicity rating AVEFA (wild oat (Avena fatua) [12]): 30
- Phytotoxicity rating HELAN [13]: 90
- Phytotoxicity rating SETFA [14]: 90
